Entries after “also recorded” stand apart in the source; their conditions may differ.
How the values were obtained:
rhesus monkeys = test: MAC in rhesus monkeys; format: in vivo; conditions: 37° C.
Protocol: The gaseous concentration of xenon which prevents a response to a painful stimulus (i.e. MAC) appears to vary among species, being 71% atm in humans (Cullen SC et al, Anesthesiology 1969, 31:305-309), 98% atm in rhesus monkeys (Whitehurst S L et al, J. Neurosurg. Anesthesiol. 1994, 6:275-279) and 161% atm in rats (Koblin D D et al, Anesth. Analg. 1998, 87:419-424). When these values are converted to free aqueous concentrations at 37° C. (Franks N P et al, Br. J. Anaesth. 1993, 71:65-76; Franks N P et al, Anesthesiology, 1996, 84:716-720) using an Ostwald water/gas partition coefficient of 0.0887 (Weathersby P K et al, Undersea Biomed. Res. 1980, 7:277-296), the values obtained are 2.5 mM, 3.4 mM and 5.6 mM for humans, monkeys and rats respectively, with the average value being 3.8 mM. For the experiments described herein, performed at room temperature, the concentration of xenon present in the standard test solution was 3.4 mM. […] This is illustrated with representative traces in FIG. 2.

rats = conditions: cited from earlier work
GABAA receptors = test: Currents evoked by exogenously applied GABA in voltage-clamped cultured hippocampal neurons; format: cell-based; conditions: 100% xenon; cultured rat hippocampal neurons
[1] = system: co-culture injured by oxygen/glucose or oxygen deprivation; test: Oxygen/glucose or oxygen deprivation injury in co-culture (LDH release); format: cell-based, mouse; conditions: 75 min replacement of O2 with N2; xenon replacing N2
Protocol: Anoxia was performed on a co-culture by a 75 min replacement of O2 with N2. The xenon and N2 concentrations were changed reciprocally such that their aggregate was 95% of one atmosphere (5% CO2 in either group). After 24 h the culture medium was harvested and assayed for LDH. Data are expressed as the % mean±SD (n=3) of LDH released into the medium over the 24 h period normalised to LDH release when N2 alone is present.
Dissociated murine cortical cell cultures were prepared using whole cerebral neocortices from fetal mice (14-17 days of gestation). Cortical glial cell cultures were prepared from early postnatal mice. After halting non-neuronal cell division with cytosine arabinoside the surviving cortical neuronal cells were plated onto the glial cell background and co-cultured.

[2] = system: glutamatergic synapses (NMDA receptor slow component, AMPA/KA receptor fast component) of hippocampal neurons; test: Excitatory (glutamatergic) postsynaptic currents, voltage-clamped autaptic hippocampal neurons; format: cell-based, rat
Protocol: Hippocampal neurons were grown in culture using methods described previously (Segal M M et al, J. Neurophysiol. 1990, 64:1390-1399; Bekkers J M et al, Proc. Natl. Acad. Sci. U.S.A. 1991, 88:7834-7838; Mennerick S et al, J. Neurophysiol. 1995, 73:320-332). Briefly, hippocampi from Sprague Dawley rats (postnatal day 1-3) were dissected, roughly sliced and agitated in a papain-containing solution (20 units ml^−1) for 30 minutes at 37 EC. After washing with enzyme-free solution, the tissue was gently triturated with a fire-polished Pasteur pipette and the cells were plated out at a density of 8-10×10^4 cells ml^−1 and cultured (95% air/5% CO2) at 37° C. Glass coverslips used for culturing the cells were first coated with agarose (0.15% w/v) and then sprayed with a fine mist of poly-D-lysine (PDL) and collagen (0.1 mg ml^−1 PDL and 0.5 mg ml^−1 rat-tail collagen) from a glass micro-atomiser and sterilized by UV exposure. This produced micro-islands of permissive substrate with diameters of between 100 and 1000 μm. At 3-4 days after plating, when the glial cell layer was about 80% confluent, an anti-mitotic agent (cytosine β-D-arabinofuranoside, 5 μM) was added to arrest glial cell proliferation. Neuronal cultures were then allowed to mature for another 4-9 days. We used micro-islands which contained single isolated neurons whose axonal processes and dendritic trees formed multiple self-synapses (autapses). This procedure provided a large population of phenotypically identical monosynaptic connections.
The neurons were voltage-clamped using the whole-cell recording technique (Axopatch 200 amplifier, Axon Instruments, Foster City, Calif.). Electrodes were fabricated from borosilicate glass and typically had resistances of between 3-5 MΩ. Series resistance was compensated by 75-90%. Neurons were voltage-clamped at −60 mV, and synaptic responses were stimulated by a 2 ms depolarising pulse to +20 mV. […] For the synaptic measurements, data were sampled at 50 kHz, filtered at 20 kHz (−3 dB, 8-pole Bessel) and stored on a computer. The extracellular recording solution was (mM) 137 NaCl, 5 KCl, 3 CaCl2, 5 HEPES, 10 glucose, 0.001 glycine, 0.0001 strychnine-HCl, titrated to pH 7.3 with NaOH; and the intracellular (pipette) solution was (mM) 140 KCl, 4 NaCl, 0.5 EGTA, 2 MgATP, 10 HEPES, titrated to pH 7.25 with KOH.
Xenon solutions were prepared by first bubbling pure gases (oxygen, nitrogen or xenon) through fine sintered-glass bubblers in 250- or 500-ml Drechsel bottles filled with extracellular recording saline. […] (To minimise oxidization, the neurotoxins and neurotransmitters were excluded from the fully oxygenated saline.) During bubbling, the solutions were continually stirred at room temperature. These solutions were then mixed to achieve the desired final concentrations of the gases. Our control solutions usually contained 80% of the nitrogen solution and 20% of the oxygen solution, while our test solutions usually contained 80% of the xenon solution and 20% of the oxygen solution. Using a Bunsen water/gas partition coefficient of 0.0965 (Smith R A et al, Biochim. Biophys. Acta 1981, 645:327-338) we calculate that our standard test solution contained 3.4 mM xenon. Xenon (research grade, 99.993% pure) was supplied by BOC gases, Guildford, Surrey, UK. In all cases xenon was pre-applied to the neurons for at least 30 seconds before the initiation of synaptic currents.
In order to obtain an estimate for the total charge transfer, the EPSCs or IPSCs were numerically integrated.

[3] = excitatory currents + 3.4 mM xenon

## [Xe] [xenon]
Rhesus monkeys
  MAC converted to free aqueous concentration: 3.4 mM
rats
  gaseous concentration which prevents a response to a painful stimulus (MAC): 161 % atm
GABAA receptors
  effect on currents activated by 3 μM GABA: not significantly affected
[1]
  protection against injury induced by oxygen/glucose or oxygen alone deprivation (LDH release over 24 h): dose-dependent protective effect
[2]; 3.4 mM (80%) xenon
  effect on the fast AMPA/KA receptor-mediated component: barely changes; also recorded: only a small effect
[2]; 3.4 mM xenon
  effect on the glutamatergic (excitatory) synaptic current: strongly depressed; also recorded: greatly depressed
[2]; [3]
  Decay half-time % change (means ± SEM): −22.7 ± 2.5%
  Ifast % change (means ± SEM): −4.1 ± 5.2%
  Ipeak % change (means ± SEM): −13.5 ± 1.8%
  Islow % change (means ± SEM): −70.3 ± 2.4%
  Qfast % change (means ± SEM): −11.4 ± 5.6%
  Qslow % change (means ± SEM): −68.2 ± 4.2%
  Total charge transfer % change (means ± SEM): −55.6 ± 2.7%
  τfast % change (means ± SEM): −12.3 ± 1.8%
  τslow % change (means ± SEM): −6.7 ± 6.5%

— US6653354B2, “NMDA antagonist comprising xenon” (priority 1999, dated 2003)
